Like-named read-outs stand apart in the source and are kept apart here.
Key:
[1] = Ascending multiple dose pharmacokinetics of enteric coated capsules in healthy subjects; assay type: in vivo, human; settings: human, plasma, po, healthy subjects
Method: Ascending multiple doses of 25, 50, 75, 100, 150, and 250 mg Compound A.HCl were administered as twice-daily regimen (q12h) for 14 days in cohorts of 8 healthy subjects (6 active and 2 placebo). Blood samples for Compound A.HCl analysis were obtained on days 1 and 14 within 2 hours of test article administration and at various time points from 0.5 to 48 hours after test article administration. Doses were administered orally after an overnight fast of at least 10 hours on these 2 days. Trough PK samples were collected on days 7, 10, and 12 to assess whether steady-state had been reached.
A total of 48 subjects contributed pharmacokinetic data for this analysis. […] FIGS. 4A and 4B show the relationship between Cmax vs. dose and AUC vs. dose, respectively.

[2] = Early toxicology testing in dogs; assay type: in vivo; settings: oral suspension
From the text: Enteric-coated capsules were developed which delayed the release of the drug. […] For human clinical studies, enteric-coated pellets were developed which provided advantages over enteric-coated capsules for dose flexibility and more uniform release in the intestinal tract.

[3] = Single ascending dose study; assay type: in vivo; settings: single oral doses of 500 mg
5-HT2C = target: T1, 5-HT2C (Homo sapiens, UniProt P28335); settings: cited from earlier work
T1 sequence (P28335 33-458): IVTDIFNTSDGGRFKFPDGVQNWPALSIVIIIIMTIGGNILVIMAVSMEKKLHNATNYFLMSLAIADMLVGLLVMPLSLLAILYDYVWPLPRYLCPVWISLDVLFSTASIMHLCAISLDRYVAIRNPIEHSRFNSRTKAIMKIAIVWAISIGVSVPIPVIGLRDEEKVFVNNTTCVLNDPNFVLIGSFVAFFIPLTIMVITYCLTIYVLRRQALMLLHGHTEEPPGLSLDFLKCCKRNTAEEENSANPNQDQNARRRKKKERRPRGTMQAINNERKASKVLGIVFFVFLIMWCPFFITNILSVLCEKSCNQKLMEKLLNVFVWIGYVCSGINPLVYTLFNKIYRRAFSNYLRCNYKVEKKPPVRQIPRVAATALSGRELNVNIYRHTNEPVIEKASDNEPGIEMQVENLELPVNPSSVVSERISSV

For Cl.c1cc2c3c(c1)[C@H]1CCC[C@H]1CN3CCNC2 [Compound A.HCl, (9aR,12aS)-4,5,6,7,9,9a,10,11,12,12a-decahydrocyclopenta[c][1,4]diazepino[6,7,1-ij]quinoline hydrochloride], which AUC(0-t) ([1]; 100 mg, multiple oral doses (q12 h) 100 mg, day 14, read-out: AUCss (AUC0-12) (Geom. Mean)) is on record?
The AUC(0-t) was 49.2 ng·h/mL.

And the AUC(0-t) ([1]; 100 mg, multiple oral doses (q12 h) 100 mg, day 14, read-out: AUCss (AUC0-12) (Mean))?
The AUC(0-t) was ~62.8 ng·h/mL.

And the Cmax ([1]; 100 mg, multiple oral doses (q12 h) 100 mg, day 14, read-out: Cmax (Geom. Mean))?
Its Cmax is 6.45 ng/mL.

And the Cmax ([1]; 100 mg, multiple oral doses (q12 h) 100 mg, day 14, read-out: Cmax (Mean))?
Its Cmax is 7.81 ng/mL.

What about the Tmax ([1]; 100 mg, multiple oral doses (q12 h) 100 mg, day 14, read-out: Tmax (Geom. Mean)) of the same compound?
Its Tmax is 5.3 h.

And the Tmax ([1]; 100 mg, multiple oral doses (q12 h) 100 mg, day 14, read-out: Tmax (Mean))?
Its Tmax is 5.5 h.

And the half-life ([1]; 100 mg, multiple oral doses (q12 h) 100 mg, day 14, read-out: t1/2 (Geom. Mean) (converted))?
The half-life was 7.72 h.

What about the half-life ([1]; 100 mg, multiple oral doses (q12 h) 100 mg, day 14, read-out: t1/2 (Mean) (converted)) of the same compound?
Its half-life is 7.86 h.

What about the AUC(0-inf) ([1]; 100 mg, single oral dose 100 mg, day 1, read-out: AUC0-∞ (Geom. Mean)) of the same compound?
The AUC(0-inf) was 47.2 ng·h/mL.

What about the AUC(0-inf) ([1]; 100 mg, single oral dose 100 mg, day 1, read-out: AUC0-∞ (Mean)) of the same compound?
Its AUC(0-inf) is 55.5 ng·h/mL.

And the Cmax ([1]; 100 mg, single oral dose 100 mg, day 1, read-out: Cmax (Geom. Mean))?
Its Cmax is 3.64 ng/mL.

What about the Cmax ([1]; 100 mg, single oral dose 100 mg, day 1, read-out: Cmax (Mean)) of the same compound?
The Cmax was 4.38 ng/mL.

What about the Tmax ([1]; 100 mg, single oral dose 100 mg, day 1, read-out: Tmax (Geom. Mean)) of the same compound?
The Tmax was 5.3 h.

What about the Tmax ([1]; 100 mg, single oral dose 100 mg, day 1, read-out: Tmax (Mean)) of the same compound?
The Tmax was 5.5 h.

What about the half-life ([1]; 100 mg, single oral dose 100 mg, day 1, read-out: t1/2 (Geom. Mean) (converted)) of the same compound?
The half-life was 9.31 h.

What about the half-life ([1]; 100 mg, single oral dose 100 mg, day 1, read-out: t1/2 (Mean) (converted)) of the same compound?
Its half-life is 9.9 h.

And the AUC(0-t) ([1]; 150 mg, multiple oral doses (q12 h) 150 mg, day 14, read-out: AUCss (AUC0-12) (Geom. Mean))?
The AUC(0-t) was 90.7 ng·h/mL.

What about the AUC(0-t) ([1]; 150 mg, multiple oral doses (q12 h) 150 mg, day 14, read-out: AUCss (AUC0-12) (Mean)) of the same compound?
The AUC(0-t) was ~110 ng·h/mL.

And the Cmax ([1]; 150 mg, multiple oral doses (q12 h) 150 mg, day 14, read-out: Cmax (Geom. Mean))?
Its Cmax is 10.7 ng/mL.

And the Cmax ([1]; 150 mg, multiple oral doses (q12 h) 150 mg, day 14, read-out: Cmax (Mean))?
Its Cmax is 13.1 ng/mL.

And the Tmax ([1]; 150 mg, multiple oral doses (q12 h) 150 mg, day 14, read-out: Tmax (Geom. Mean))?
Its Tmax is 5 h.

What about the Tmax ([1]; 150 mg, multiple oral doses (q12 h) 150 mg, day 14, read-out: Tmax (Mean)) of the same compound?
Its Tmax is 5.2 h.

What about the half-life ([1]; 150 mg, multiple oral doses (q12 h) 150 mg, day 14, read-out: t1/2 (Geom. Mean) (converted)) of the same compound?
Its half-life is 7 h.

What about the half-life ([1]; 150 mg, multiple oral doses (q12 h) 150 mg, day 14, read-out: t1/2 (Mean) (converted)) of the same compound?
The half-life was 7.04 h.

And the AUC(0-inf) ([1]; 150 mg, single oral dose 150 mg, day 1, read-out: AUC0-∞ (Geom. Mean))?
The AUC(0-inf) was 55.3 ng·h/mL.

What about the AUC(0-inf) ([1]; 150 mg, single oral dose 150 mg, day 1, read-out: AUC0-∞ (Mean)) of the same compound?
The AUC(0-inf) was 70.2 ng·h/mL.

What about the Cmax ([1]; 150 mg, single oral dose 150 mg, day 1, read-out: Cmax (Geom. Mean)) of the same compound?
The Cmax was 3.67 ng/mL.

What about the Cmax ([1]; 150 mg, single oral dose 150 mg, day 1, read-out: Cmax (Mean)) of the same compound?
Its Cmax is 5.05 ng/mL.

And the Tmax ([1]; 150 mg, single oral dose 150 mg, day 1, read-out: Tmax (Geom. Mean))?
Its Tmax is 5.6 h.

What about the Tmax ([1]; 150 mg, single oral dose 150 mg, day 1, read-out: Tmax (Mean)) of the same compound?
The Tmax was 5.7 h.

What about the half-life ([1]; 150 mg, single oral dose 150 mg, day 1, read-out: t1/2 (Geom. Mean) (converted)) of the same compound?
The half-life was 9 h.

What about the half-life ([1]; 150 mg, single oral dose 150 mg, day 1, read-out: t1/2 (Mean) (converted)) of the same compound?
Its half-life is 9.08 h.

What about the AUC(0-t) ([1]; 250 mg, multiple oral doses (q12 h) 250 mg, day 14, read-out: AUCss (AUC0-12) (Geom. Mean)) of the same compound?
The AUC(0-t) was 218 ng·h/mL.

And the AUC(0-t) ([1]; 250 mg, multiple oral doses (q12 h) 250 mg, day 14, read-out: AUCss (AUC0-12) (Mean))?
Its AUC(0-t) is ~235 ng·h/mL.

What about the Cmax ([1]; 250 mg, multiple oral doses (q12 h) 250 mg, day 14, read-out: Cmax (Geom. Mean)) of the same compound?
Its Cmax is 25.6 ng/mL.

And the Cmax ([1]; 250 mg, multiple oral doses (q12 h) 250 mg, day 14, read-out: Cmax (Mean))?
The Cmax was 26.8 ng/mL.

And the Tmax ([1]; 250 mg, multiple oral doses (q12 h) 250 mg, day 14, read-out: Tmax (Geom. Mean))?
Its Tmax is 5.9 h.

What about the Tmax ([1]; 250 mg, multiple oral doses (q12 h) 250 mg, day 14, read-out: Tmax (Mean)) of the same compound?
Its Tmax is 6.2 h.

And the half-life ([1]; 250 mg, multiple oral doses (q12 h) 250 mg, day 14, read-out: t1/2 (Geom. Mean) (converted))?
Its half-life is 6.99 h.

And the half-life ([1]; 250 mg, multiple oral doses (q12 h) 250 mg, day 14, read-out: t1/2 (Mean) (converted))?
Its half-life is 7.12 h.

And the AUC(0-inf) ([1]; 250 mg, single oral dose 250 mg, day 1, read-out: AUC0-∞ (Geom. Mean))?
The AUC(0-inf) was 84.7 ng·h/mL.

And the AUC(0-inf) ([1]; 250 mg, single oral dose 250 mg, day 1, read-out: AUC0-∞ (Mean))?
Its AUC(0-inf) is 95.5 ng·h/mL.

And the Cmax ([1]; 250 mg, single oral dose 250 mg, day 1, read-out: Cmax (Geom. Mean))?
The Cmax was 5.91 ng/mL.

And the Cmax ([1]; 250 mg, single oral dose 250 mg, day 1, read-out: Cmax (Mean))?
Its Cmax is 6.27 ng/mL.

What about the Tmax ([1]; 250 mg, single oral dose 250 mg, day 1, read-out: Tmax (Geom. Mean)) of the same compound?
The Tmax was 5.9 h.

What about the Tmax ([1]; 250 mg, single oral dose 250 mg, day 1, read-out: Tmax (Mean)) of the same compound?
The Tmax was 6 h.

What about the half-life ([1]; 250 mg, single oral dose 250 mg, day 1, read-out: t1/2 (Geom. Mean) (converted)) of the same compound?
The half-life was 9.91 h.

And the half-life ([1]; 250 mg, single oral dose 250 mg, day 1, read-out: t1/2 (Mean) (converted))?
Its half-life is 10.4 h.

What about the “reaction noted in toxicology testing” value [2] of the same compound?
Its value is “emetic reaction”.

What about the “dose proportionality of exposure” value [3] of the same compound?
The value was “signs of nonlinearity”.

What about the 5-HT2C agonist activity (5-HT2C) of the same compound?
The 5-HT2C agonist activity was “potent 5-HT2C agonist”.
